Tests used:
[1] = molecular target: T1, tau protein (4R2N, 441 amino acids) (Homo sapiens, UniProt P10636); assay: In vitro abnormal tau phosphorylation by GSK3β, competition with heparin (western blot); assay type: biochemical; details: for ability to compete with heparin for abnormal tau phosphorylation by GSK3β / capacity to protect tau from its abnormal phosphorylation induced by heparin: molecule 60 μg/mL vs heparin 12 μg/mL; for ability to compete with heparin for abnormal tau phosphorylation by GSK3β: 1.5 to 6 h of reaction, AT270, Ser199/202; for capacity to protect tau from its abnormal phosphorylation induced by heparin: AT270 antibody
T1 construct: purchased Millipore (tau); Promega (GSK3β)
From the text: Phosphorylation of tau protein is the most common post-translational modification to regulate tau activity and functions. The longest tau isoform (4R2N, 441 amino acids) containing 85 potential phosphorylation sites was used. In vitro phosphorylation of the tau protein is done by induction, on the one hand, (FIG. 5) and, on the other hand, according to a competition process between the LG2A molecules and heparin, conventionally used to induce abnormal tau phosphorylation in vitro (FIGS. 3, 4, 6, 7, 8, 9 and 10).
For abnormal tau phosphorylation tests, GSK3p, a kinase centrally involved in this process in the brains of subjects with Alzheimer's disease (AD), was used. Analysis of tau phosphorylation by GSK3b at sites characteristic of AD is possible by the western blot technique using specific antibodies that recognize abnormally phosphorylated sites in the brain or cerebrospinal fluid of AD subjects, such as the AT270 antibody which recognizes threonine 181 (Thr181), the PHF1 antibody which recognizes serines 396 and 404 (Ser396/Ser404), and the AT8 antibody, which recognizes the Ser199/Ser202/Thr205 site.
By competition: The tau protein (40 μg/mL) is phosphorylated by the GSK3β enzyme at 4 ng/mL (Promega) in the presence of ATP (Sigma-Aldrich) at 48 μM and protease inhibitors (Sigma-Aldrich, 1/100), in the buffer mentioned above. The ability of the LG2A molecules (60 μg/mL) to compete with heparin (12 μg/mL; Sigma-Aldrich) is evaluated. Thus if the signal in the presence of the molecules is less than that obtained with heparin alone, the molecules are then defined as “protectors” from abnormal tau phosphorylation.
In both systems (induction or competition), the tau protein is incubated at 37° C. with stirring in the presence of the different elements presented above. The reaction kinetics are monitored by taking 8 μL of the samples at 1.5 h, 3 h and 6 h of incubation. Loading buffer (Euromedex) and β-mercaptoethanol (Sigma-Aldrich) are added to each sample. The samples are then stored at −20° C. until analysis by western blot.
After denaturation of the samples by heating at 95° C. for 5 minutes, the samples are deposited simultaneously with the molecular weight marker (Precision Plus Protein™ Dual Color Standards; BIO-RAD) on a 10% acrylamide gel placed in an electrophoresis tank containing migration buffer (0.25 M Tris; 1.6 M Glycine; […]; pH 8.6).
The controls used for this phosphorylation experiment followed by western blot are: • the “native tau” protein, that is to say the non-phosphorylated tau protein. • the tau protein phosphorylated by GSK3b alone in the absence of heparin. • the tau protein phosphorylated in the presence of heparin, denoted “tau+heparin”. • the “external standard” corresponding to the tau protein phosphorylated in the presence of heparin for 3 h. This standard is carried out in an experiment independently of the phosphorylation experiments in the presence of LG2A compounds. It ensures that the western blot is carried out correctly.
Then the membrane is incubated overnight with stirring at +4° C. in a solution of PBS, 0.1% Tween and 1% milk containing the primary antibody specific for tau phosphorylation sites (AT270, ThermoScientific or S199-202, Millipore).
After incubation of the PVDF membrane in the chosen primary antibody, a succession of 3 washes of 5 minutes of the membrane is carried out in PBS and 0.1% Tween with stirring and the membrane is incubated for 1 h with stirring at room temperature in a solution of 1×PBS, 0.1% Tween and 1% milk containing the diluted secondary antibody (Jackson Immuno-Research).

[2] = test system: tau phosphorylation (S262 site) in SH-SY5Y cells; assay: In cellulo tau phosphorylation test in the SH-SY5Y line (H2O2 stress induction); assay type: cell-based; details: 24 hours, then H2O2
Description: The tau phosphorylation induction model on the SH-SY5Y cell line described in the Gly-CRRET laboratory article was used here (Sepulveda-Diaz et al., 2015).
In short, SH-SY5Y cells are seeded in 6-well plates and differentiated using retinoic acid (10 μM, Sigma Aldrich) for 5 days. On day 6, the cells are placed in the presence of the Mal16diS and Mal18diS molecules at different concentrations (1, 10 or 100 μg/mL), in a final volume of 2 mL simultaneously with a well not receiving molecules. After 24 hours, the molecules are removed and the stress inducer (H2O2, Sigma Aldrich) is added to the cell medium for 30 minutes. The cells are then rinsed with 1×PBS then lysed and recovered in RIPA buffer (Thermo Fisher). The protein extracts from the cells (10 μg) are then analysed by western blot according to the same procedure described above.
The tau phosphorylation site studied here is the S262 site (Thermo Fisher), normalized to the expression of the GAPDH protein (Sigma Aldrich). The bands are quantified using the Odyssey software of the LI-COR device allowing the p-tau/GAPDH ratio to be calculated for each of the conditions. The ratio obtained for each concentration of molecule is then expressed as a percentage of the ratio obtained for the control cells, i.e., not treated by the molecules. Thus a value less than 100% corresponds to protection provided by the molecules in this cellular model of tau phosphorylation induction.
The experiment was repeated at least 4 times for each molecule dose for the “Mal16diS” and “Mal18diS” molecules and at least twice for the “Cell16diS” and “Lac16diS” molecules. The mean and standard deviation of the replicates are shown in FIGS. 13 to 16; each of the values obtained for each dose is compared to that of the control without addition of molecule by means of a t-test. Statistical differences with p-value <0.05 and <0.001 are represented by “*” and “***” respectively.

[3] = molecular target: T1, tau protein (4R2N, 441 amino acids); details: GSK3β; FIG. 2, Sepulveda-Diaz et al, 2015; cited from earlier work
SH-SY5Y = assay: Cytotoxicity study, MTT test; assay type: cell-based; details: differentiated SH-SY5Y; 0.1 to 100 μg/mL; 24 hours
Description: In order to evaluate the level of toxicity of these molecules according to their concentration in the cellular environment, an MTT test (3-(4,5-dimethylthiazol-2-yl)-2,5-diphenyl tetrazolium bromide) is carried out (FIGS. 11 and 12) upstream of the phosphorylation tests in cellulo.
SH-SY5Y (ATCC-CRL-2266) are developed in Dulbecco's Modified Eagle Complete Medium (DMEM-GlutaMAX™, Life Technologies) with 10% foetal bovine serum (FBS) and 1% penicillin/streptomycin in an incubator at 37° C. with 5% CO2.
For this, the SH-SY5Y cells are cultured in a 6-well plate at a cell density of 200,000 cells/well and are differentiated using retinoic acid (10 μM, Sigma Aldrich) for 5 days. On day 6, the cells are brought into contact with LG2A molecules at different concentrations (0.1, 1, 10 or 100 μg/mL), in a final volume of 2 mL. After 24 hours, MTT (5 μg/mL; Sigma-Aldrich) is added to the cell medium for 2 hours at 37° C. Then the medium is removed and 200 μL of pure dimethylsulfoxide (DMSO, Sigma-Aldrich) are added to each well. The entire contents of each well are transferred to a 96-well plate and the absorbance is measured at 562 nm using the Infinite M1000 spectrofluorometer (Tecan).

T1 sequence (P10636 1-441 isoform P10636-8): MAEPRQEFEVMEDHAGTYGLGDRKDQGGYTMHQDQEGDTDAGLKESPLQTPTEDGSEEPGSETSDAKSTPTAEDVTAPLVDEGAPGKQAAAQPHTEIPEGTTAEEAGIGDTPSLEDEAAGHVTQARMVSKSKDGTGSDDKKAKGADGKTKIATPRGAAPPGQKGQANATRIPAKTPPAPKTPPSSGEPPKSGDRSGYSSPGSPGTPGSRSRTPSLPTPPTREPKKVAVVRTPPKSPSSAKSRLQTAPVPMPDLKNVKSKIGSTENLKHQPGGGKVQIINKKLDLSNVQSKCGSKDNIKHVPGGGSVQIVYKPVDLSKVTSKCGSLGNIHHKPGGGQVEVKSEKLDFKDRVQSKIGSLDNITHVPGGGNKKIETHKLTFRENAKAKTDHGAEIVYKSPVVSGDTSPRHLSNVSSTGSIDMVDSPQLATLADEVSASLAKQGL

Compound	ability to compete with heparin for abnormal tau phosphorylation by GSK3β [1]	capacity to protect tau from its abnormal phosphorylation induced by heparin [1]	other results
CCCCCCCCCCCCCCNC(=O)[C@H](O)[C@@H](O)[C@H](O)[C@H](O)CO[C@H]1O[C@H](COS(=O)(=O)[O-])[C@H](O)[C@H](O)[C@H]1O.[Na+] [Mel14monoS, N-Tetradecyl-6′-O-Sulfo-Melibioamide Sodium]	do not compete with heparin	–	–
N-Hexadecyl-6,6′-Di-O-Sulfo-D-Cellobioamide Disodium [Cell16diS]	total competition with heparin	–	reduction in tau phosphorylation (S262, p-tau/GAPDH) compared to untreated cells ([2]; 1 μg/mL): approximately 34%; reduction in tau phosphorylation (S262, p-tau/GAPDH) compared to untreated cells ([2]; 10 μg/mL): 17%; reduction in tau phosphorylation (S262, p-tau/GAPDH) compared to untreated cells ([2]; 100 μg/mL): 20%
N-Octadecyl-D-Glucuronyl-(α-1,4)-D-Xyluronamide [Mal18diOx]	does not compete with heparin	–	–
CCCCCCCCCCCCCCCCCCNC(=O)C(O)C(O)C(O)C(O)COC1OC(COS(=O)(=O)[O-])C(O)C(O)C1O.[Na+] (centres unmarked) [Mel18monoS, N-Octadecyl-6′-O-Sulfo-Melibioamide Sodium]	do not compete with heparin	–	–
N-Octadecyl-6,6′-Di-O-Sulfo-D-Cellobioamide Disodium [Cell18diS]	total competition with heparin	–	–
N-Octadecyl-Tri-O-Sulfo-D-Maltobioamide Trisodium [Mal18triS]	–	maintenance of this capacity to protect tau	–
heparin	–	–	phosphorylation of tau on sites characteristic of AD in the presence of heparin [3]: phosphorylation at all tau sites takes place
N-Hexadecyl-D-Glucuronyl-(α-1,4)-D-Xyluronamide [Mal16diOx]	–	less effective than disulphated maltobionamide compounds with the same chain length	–
N-Hexadecyl-6,6′-Di-O-Sulfo-Lactobioamide Disodium [Lac16diS]	total competition with heparin	–	reduction in tau phosphorylation (S262, p-tau/GAPDH) compared to untreated cells ([2]; 1 μg/mL): 25%; reduction in tau phosphorylation (S262, p-tau/GAPDH) compared to untreated cells ([2]; 100 μg/mL): 54%
CCCCCCCCCCCCCCCCCCNC(=O)[C@H](O)[C@@H](O)[C@H](O[C@H]1OC(COS(=O)(=O)[O-])[C@@H](O)C(O)[C@@H]1O)[C@H](O)COS(=O)(=O)[O-].[Na+].[Na+] (stereo partly drawn) [Mal18diS, N-Octadecyl-6,6′-Di-O-Sulfo-D-Maltobionamide Disodium]	total competition with heparin	–	abnormal phosphorylation of tau (p-tau) revealed by AT270 and Ser199/202 antibodies ([1]; in presence of heparin, after 3 h of reaction): inhibited; cytotoxicity (MTT) (SH-SY5Y): not cytotoxic; reduction in tau phosphorylation (S262, p-tau/GAPDH) compared to untreated cells ([2]; 1 μg/mL): ~30%; reduction in tau phosphorylation (S262, p-tau/GAPDH) compared to untreated cells ([2]; 10 μg/mL): ~30%; reduction in tau phosphorylation (S262, p-tau/GAPDH) compared to untreated cells ([2]; 100 μg/mL): up to 60%
N-Octadecyl-6,6′-Di-O-Sulfo-Lactobioamide Disodium [Lac18diS]	total competition with heparin	–	–
CCCCCCCCCCCCCCCCNC(=O)C(OS(=O)(=O)[O-])C(OS(=O)(=O)[O-])C(OC1OC(COS(=O)(=O)[O-])C(OS(=O)(=O)[O-])C(OS(=O)(=O)[O-])C1OS(=O)(=O)[O-])C(COS(=O)(=O)[O-])OS(=O)(=O)[O-].[Na+].[Na+].[Na+].[Na+].[Na+].[Na+].[Na+].[Na+] [Mal16perS, N-Hexadecyl-Per-O-Sulfo-D-Maltobioamide Sodium Salt]	–	retains its ability to protect tau	–
N-Hexadecyl-Tri-O-Sulfo-D-Maltobioamide Trisodium [Mal16triS]	–	maintenance of this capacity to protect tau	–
N-Hexadecyl-6 or 6′-O-Sulfo-D-Maltobioamide Sodium [Mal16monoS]	–	slight loss of the protective capacity	–
CCCCCCCCCCCCCCCCNC(=O)[C@H](O)[C@@H](O)[C@H](O)[C@H](O)CO[C@H]1O[C@H](COS(=O)(=O)[O-])[C@H](O)[C@H](O)[C@H]1O.[Na+] [Mel16monoS, N-Hexadecyl-6′-O-Sulfo-Melibioamide Sodium]	do not compete with heparin	–	–
N-Octadecyl-6 or 6′-O-Sulfo-D-Maltobioamide Sodium [Mal18monoS]	–	slight loss of the protective capacity	–
